Values quoted from earlier work, collected in US20190091195A1, “USE OF DIANHYDROGALACTITOL AND DERIVATIVES THEREOF IN THE TREATMENT OF GLIOBLASTOMA, LUNG CANCER, AND OVARIAN CANCER” (Del Mar Pharmaceuticals, priority 2015, published 2019).

Tests used:
GSK-3β = GSK-3β (Homo sapiens, UniProt P49841); conditions: cited from earlier work
[1] = cited from earlier work

Chain of GSK-3β (P49841 whole entry, species assumed): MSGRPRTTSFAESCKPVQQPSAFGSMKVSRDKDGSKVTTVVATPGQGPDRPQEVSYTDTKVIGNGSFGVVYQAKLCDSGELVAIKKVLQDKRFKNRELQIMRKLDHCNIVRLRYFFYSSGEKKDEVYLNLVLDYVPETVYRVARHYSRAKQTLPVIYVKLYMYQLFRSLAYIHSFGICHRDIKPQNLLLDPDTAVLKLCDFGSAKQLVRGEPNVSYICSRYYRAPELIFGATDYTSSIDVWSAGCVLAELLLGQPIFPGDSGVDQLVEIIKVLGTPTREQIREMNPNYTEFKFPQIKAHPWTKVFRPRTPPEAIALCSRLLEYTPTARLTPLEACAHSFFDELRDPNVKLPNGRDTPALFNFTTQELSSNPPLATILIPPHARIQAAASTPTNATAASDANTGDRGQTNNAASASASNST

SMILES | concentration for inhibition of GSK-3β (GSK-3β) [nM] | absorption by the oral route [1]
CN1C(=O)/C(=C2/C(=O)Nc3ccccc32)c2ccccc21 [Meisoindigo] | 5 to 50 | 
O[C@H]([C@H](O)[C@@H](O)CBr)[C@H](O)CBr [dibromodulcitol] |  | rapid and fairly complete
